One experiment concerns the target T1, PPAR-α (Homo sapiens, UniProt Q07869).
T1 construct: expressed in transfected cells; host or cells: CV-1 (African green monkey kidney)
T1 sequence (Q07869 167-468): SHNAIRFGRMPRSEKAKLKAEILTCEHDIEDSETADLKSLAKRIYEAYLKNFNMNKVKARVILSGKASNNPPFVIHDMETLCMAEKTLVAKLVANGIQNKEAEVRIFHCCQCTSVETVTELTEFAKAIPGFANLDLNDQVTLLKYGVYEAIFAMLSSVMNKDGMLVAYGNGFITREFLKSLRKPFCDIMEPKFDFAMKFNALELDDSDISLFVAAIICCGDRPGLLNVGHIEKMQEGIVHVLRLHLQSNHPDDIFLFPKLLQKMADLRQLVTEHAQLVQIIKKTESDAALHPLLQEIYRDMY
As to the kind of experiment: PPAR-α reporter assay (GAL4 luciferase, CV-1 cells). The format is cell-based. To be noted: induction ratio of luciferase activity at 50 μM, activity without tested compound = 1, hGR-GAL4-hPPAR-α. The procedure: The reporter assay of PPAR (peroxisome proliferator-activated receptor)-α was conducted by using the following plasmids in accordance with the known report (Steven A. Kliwer et al., The Journal of Biological Chemistry Vol. 270, No. 22: 12953-12956, 1995).
As luciferase expressing plasmid, used was the plasmid which introduces the sequence wherein 5 yeast GAL4 binding sequences, UAS (upstream activating sequence), are tandemly connected to the upstream of the thymidine kinase promoter of pTAL-Luc (#6252-1, produced by Clontech) (UAS×5-TK-Luc) (1).
As PPAR-α receptor expressing plasmid, used was the plasmid which introduces the N-terminal domain of human GR (1-76aa), the yeast GAL4 DNA binding domain (1-147aa) and PPAR-α ligand binding domain (167-468aa) to NotI site and SalI site of pExchange-1 core vector (#211176, produced by Stratagene) (hGR-GAL4-hPPAR-α) (2). The plasmid mixed solution used in the reporter assay of PPAR-α contains above (1), (2) and plasmid pcDNA3.1(−) as a carrier in the weight ratio of 4:1:3.
The medium having the following composition was used for seeding cell line CV-1 used in the reporter assay, derived from the kidney of an African green monkey, on the plate; and for diluting the tested compounds. Used was Dulbecco modified Eagle medium (D2902 without phenol red, produced by SIGMA) to which 3.7 g/L of NaHCO3, 3.5 g/L of D-glucose and 10% v/v fetal bovine serum were added.
(§1) CV-1 cells were seeded on the 384-well white plate (781080, produced by Greiner) to become 1.5×10^4 cells/30 μL per one well. Then, gene transfer was conducted in accordance with the manual by using OPTI-MEM I (11058-021, produced by GIBCO), FuGENE6 (1-815-075, produced by Roche) and the above PPAR-α plasmid mixed solution. The incubation was conducted in a carbon-dioxide incubator at 37° C. for 6 to 8 hours. Then, a diluted tested compound was added thereto and incubated in a carbon-dioxide incubator at 37° C. for 16 to 18 hours. Britelite (6016979, produced by PerkinElmer) was further added thereto and stirred, and the luciferase activity was measured with EnVision (produced by PerkinElmer).
(§2) Specifying the luciferase activity without addition of a tested compound as 1, the induction ratio of the luciferase activity by each tested compound was calculated.
Background: Reporter assays use an easily measured gene product as a stand-in for the process of interest.

The target of a further experiment is T2, PPAR-γ (Homo sapiens, UniProt P37231).
T2 construct: expressed in transfected cells; host or cells: CV-1 (African green monkey kidney)
T2 sequence (P37231 204-505): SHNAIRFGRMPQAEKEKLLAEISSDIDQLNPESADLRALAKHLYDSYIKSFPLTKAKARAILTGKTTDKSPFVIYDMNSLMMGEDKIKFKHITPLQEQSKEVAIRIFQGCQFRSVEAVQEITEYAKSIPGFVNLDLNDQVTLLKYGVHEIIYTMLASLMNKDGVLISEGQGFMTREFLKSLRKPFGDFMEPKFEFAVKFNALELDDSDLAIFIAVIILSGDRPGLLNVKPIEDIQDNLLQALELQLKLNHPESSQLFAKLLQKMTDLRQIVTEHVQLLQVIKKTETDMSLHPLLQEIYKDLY
As to the kind of experiment: PPAR-γ reporter assay (GAL4 luciferase, CV-1 cells). The experiment is classed as cell-based. To be noted: induction ratio of luciferase activity at 25 μM, activity without tested compound = 1, hGR-GAL4-hPPAR-γ. The method, then:
The reporter assay of PPAR-γ was conducted by using the following plasmids in accordance with the known report (Steven A. Kliwer et al., The Journal of Biological Chemistry Vol. 270, No. 22: 12953-12956, 1995).
As luciferase expressing plasmid, used was the plasmid which introduces the sequence wherein 5 yeast GAL4 binding sequences, UAS, are tandemly connected to the upstream of the thymidine kinase promoter of pTAL-Luc (#6252-1, produced by Clontech) (UAS×5-TK-Luc) (1).
As PPAR-γ receptor expressing plasmid, used was the plasmid which introduces the N-terminal domain of human GR (1-76aa), the yeast GAL4 DNA binding domain (1-147aa) and PPAR-γ2 ligand binding domain (204-505aa) to NotI site and SalI site of pExchange-1 core vector (#211176, produced by Stratagene) (hGR-GAL4-hPPAR-γ) (2). The plasmid mixed solution used in the reporter assay of PPAR-γ contains above (1), (2) and plasmid pcDNA3.1(−) as a carrier in the weight ratio of 4:1:3.
as §1, with “PPAR-γ” for “PPAR-α”
as §2

For `CCCCCCCCCCCC(=O)N[C@H](C(=O)O)C(C)(C)C` [Example 33], the PPAR-α induction ratio at PPAR-α is 81.0. Moreover, the PPAR-γ induction ratio on PPAR-γ is on record as 30.2.
As for `CCCCCCCCCCCC(=O)N[C@H](C(=O)O)[C@H](C)CC` [Example 35], on PPAR-α, the PPAR-α induction ratio is reported as 54.7. Further, the PPAR-γ induction ratio at PPAR-γ was 21.1.
On to `CCCCCCCCCCCC(=O)N[C@H](C(=O)O)c1ccccc1` [Example 36], for which the PPAR-α induction ratio on PPAR-α is listed as 12.5. Also, the PPAR-γ induction ratio at PPAR-γ was 8.7.
Turning to `CCCCCCCCCCCC(=O)N[C@@H](Cc1ccc(OC)cc1)C(=O)O` [Example 37], the PPAR-α induction ratio on PPAR-α came to 24.5. The PPAR-γ induction ratio at PPAR-γ was determined as 19.5.
As to `CCCCCCCCCCCC(=O)N[C@H](C(=O)O)C1CCCCC1` [Example 39], the PPAR-α induction ratio at PPAR-α is listed as 2.3. Further, the PPAR-γ induction ratio at PPAR-γ is reported as 11.2.
Consider `CCCCCCCCCCCC(=O)N[C@H](C(=O)O)C(c1ccccc1)c1ccccc1` [Example 40], for which the PPAR-α induction ratio at PPAR-α worked out at 2.0. For the same molecule, the PPAR-γ induction ratio at PPAR-γ was determined as 1.5.
Take `CCCCCCCCCCCC(=O)N[C@@H](Cc1ccc(Cl)cc1)C(=O)O` [Example 42]: at PPAR-α, the PPAR-α induction ratio was 14.4. Besides, the PPAR-γ induction ratio on PPAR-γ was 6.6.
Taken in the same sequence, the figures for `CCCCCCCCCCCC(=O)N[C@@H](Cc1csc2ccccc12)C(=O)O` [Example 43] were 3.0 and 2.2.
On to `CCCCCCCCCCCC(=O)NC1(C(=O)O)CCCCCC1` [Example 44], for which, on PPAR-α, the PPAR-α induction ratio was 6.2. For the same molecule, the PPAR-γ induction ratio at PPAR-γ came out at 6.7.

These data come from patent US7728158B2, “PPAR activity regulators” (Ajinomoto Co., Inc., priority 2006, dated 2010).
